Where “and” joins values, the source holds several entries; their conditions need not be identical. Identical values can stand only once. No end group written: not given here.
Legend:
PASMC = assay: cAMP measurement in PASMC (cyclic AMP ELISA); assay type: cell-based; details: for cAMP +/− SD: 20 min; for cyclic AMP content of PASMC, effect in words: analogues compared with VIP
Method: Effects of VIP and the peptides according to the invention are mediated by specific G-protein coupled receptors. Three distinct receptor subtypes, with differing affinity for the peptides, have been cloned and characterized as receptors 1 and 2 (VPAC1 and VPAC2) and pituitary adenylate cyclase activating polypeptide receptor (PAC1). The secondary messenger is cyclic adenosine mono phosphate (CAMP). […] Cells derived from pulmonary artery (PASMC) were seeded in 24 well plates and cultured in DMEM containing 10% fetal calf serum (Gibco lifesciences, Karlsruhe), Penicillin (Gibco lifesciences, Karlsruhe, 100 U/ml) Streptomycin (Gibco lifesciences, Karlsruhe, 100 U/ml) to confluency. […] The incubation is stopped by rinsing cells with PBS and immediate lysis of cells with HCl (0.1N) containing 3-isobutyl 1-methyl xanthine (500 μM) to block further hydrolysis of cAMP. Lysed cells were centrifuged and the supernatants assayed for cAMP using an commercially available cyclic AMP ELISA (Assay Designs, Inc., Michigan, distribution by Bio Trend, Köln).

COPD patients = assay: Phase II double-blind, randomized, placebo-controlled clinical trial of inhaled VIP in COPD; details: VIP (n = 15)
Method: Chronic obstructive pulmonary disease (COPD) is characterised by progressive airflow limitation associated with chronic inflammation. […] The efficacy and safety of VIP in patients was assessed with moderate to severe COPD.
The present double-blind, randomized, placebo-controlled study was undertaken in an outpatient setting. COPD patients (n=34) were randomly assigned VIP 50 μg (n=17), or placebo (n=17), given per inhalation, 4 times daily for 12 weeks. VIP serum concentration was measured in all patients. Primary outcomes were health-related quality of life and exercise capacity. Secondary outcomes included the lung function parameters and COPD exacerbations.

[1] = system: monocytes after LPS stimulation; assay: Nitrite (NO) production by monocytes/macrophages after LPS stimulation; assay type: cell-based, human; details: for Nitrit +/− SD: LPS 100 nM + peptide 100 nM, 24 hours, no LPS 48, LPS alone 75; for anti-inflammatory response (NO production) on simultaneous incubation with LPS: after 24 hours, analogues compared with VIP
Method: Peripheral blood mononuclear cells were isolated from whole venous blood from 12 stable COPD patients and 12 healthy probands by Ficoll density gradient centrifugation. Monocytes were differentiated in RPMI-1640 medium supplemented with 5% FCS, antibiotics and 10^−8 M 1,25-dihydroxycholecalciferol (Sigma) in a humidified atmosphere with 5% CO2 at 37° C.
For infection simulation, macrophage stimulation and experimental in vivo treatment the differentiated cells were incubated either with LPS, with LPS and SEQ ID No.:1 (VIP) or SEQ ID No.:2 (A-15) or SEQ ID No.:3 (A-18), or with medium alone for control.
To test the hypothesis whether or not the macrophages utilize the VIP-signaling pathway to modulate and limit the immune response, the inflammation reaction in vitro was stimulated and NO (produced by iNOS) production by the cells was measured under inflammation and under in vitro therapy with VIP and the peptides according to the invention (SEQ ID Nos 2 and 3). NOS increased dramatically by LPS after 24 hours. […] This anti-inflammatory response was better by both VIP-analogues according to SEQ ID Nos. 2 and 3.

C=C[C@@]1(C)CC(=O)[C@]2(O)[C@@]3(C)[C@@H](O)CCC(C)(C)[C@@H]3[C@H](O)[C@H](OC(C)=O)[C@@]2(C)O1 [Forskolin, reference compound]
cAMP +/− SD (PASMC; Forskolin 10 μM + IBMX 500 μM): 41.10 pmol/mL and 47.81 pmol/mL and 58.00 pmol/mL

CC(C)Cn1c(=O)n(C)c(=O)c2[nH]cnc21 [IBMX, 3-isobutyl 1-methyl xanthine, reference compound]
cAMP +/− SD (PASMC; IBMX 500 μM alone): 16.37 pmol/mL and 17.16 pmol/mL and 15.91 pmol/mL

CC[C@H](C)[C@H](NC(=O)[C@H](CO)NC(=O)[C@H](CC(N)=O)NC(=O)[C@H](CC(C)C)NC(=O)[C@H](Cc1ccc(O)cc1)NC(=O)[C@H](CCCCN)NC(=O)[C@H](CCCCN)NC(=O)[C@@H](NC(=O)[C@H](C)NC(=O)[C@H](CCSC)NC(=O)[C@H](CCC(N)=O)NC(=O)[C@H](CCCCN)NC(=O)[C@H](CCCN=C(N)N)NC(=O)[C@H](CC(C)C)NC(=O)[C@H](CCCN=C(N)N)NC(=O)[C@@H](NC(=O)[C@H](Cc1ccc(O)cc1)NC(=O)[C@H](CC(N)=O)NC(=O)[C@H](CC(=O)O)NC(=O)[C@@H](NC(=O)[C@H](Cc1ccccc1)NC(=O)[C@@H](NC(=O)[C@H](C)NC(=O)[C@H](CC(=O)O)NC(=O)[C@H](CO)NC(=O)[C@@H](N)Cc1c[nH]cn1)C(C)C)[C@@H](C)O)[C@@H](C)O)C(C)C)C(=O)N[C@@H](CC(C)C)C(=O)N[C@@H](CC(N)=O)C(N)=O [VIP]
Adverse events: COPD exacerbation, number (COPD patients): 8 | Adverse events: COPD exacerbation, percent (COPD patients): (53.3%) | Adverse events: Diarrhoea NOS, number (COPD patients): 0 | Adverse events: Diarrhoea NOS, percent (COPD patients): (0%) | Adverse events: Nasopharyngitis, number (COPD patients): 0 | Adverse events: Nasopharyngitis, percent (COPD patients): (0%) | Adverse events: Nausea, number (COPD patients): 0 | Adverse events: Nausea, percent (COPD patients): (0%) | Adverse events: Upper respiratory tract infection, number (COPD patients): 1 | Adverse events: Upper respiratory tract infection, percent (COPD patients): (6.7%)

His (Ac)-Ser-Asp-Ala-Val-Phe-Thr-Asp-Asn-Tyr-Thr-Arg-Leu-Arg-Lys-Gln-Met (O)-Ala-Val-Lys-Lys-Tyr-Leu-Asn-Ser-Ile-Leu-Asn [Pep - 15]
Nitrit +/− SD [1]: 16 µmol | anti-inflammatory response (NO production) on simultaneous incubation with LPS [1]: better | cyclic AMP content of PASMC, effect in words (PASMC): Higher increase | cAMP +/− SD (PASMC; peptide 1 nM + IBMX 500 μM): 26.45 pmol/mL | cAMP +/− SD (PASMC; peptide 1 nM, without IBMX): 13.30 pmol/mL | cAMP +/− SD (PASMC; peptide 10 nM + IBMX 500 μM): 27.00 pmol/mL | cAMP +/− SD (PASMC; peptide 10 nM, without IBMX): 16.30 pmol/mL | cAMP +/− SD (PASMC; peptide 100 nM + IBMX 500 μM): 36.67 pmol/mL | cAMP +/− SD (PASMC; peptide 100 nM, without IBMX): 23.30 pmol/mL

His (Ac)-Ser-Asp-Ala-Val-Phe-Thr-Asp-Asn-Tyr-Thr-Arg-Leu-Arg-Lys-Gln-Met-Ala-Val-Lys-Lys-Tyr-Leu-Asn-Ser-Val-Leu-Asn ({Ac-H2N}-SDAVFTDNYTRLRKQMAVKKYLNSVLN; not fully specified (residue 16); printed as His (Ac)-Ser-Asp-Ala-Val-Phe-Thr-Asp-Asn-Tyr-Thr-Arg-Leu-Arg-Lys-Gln-Met-Ala-Val-Lys-Lys-Tyr-Leu-Asn-Ser-Val-Leu-Asn) [Pep - 18]
Nitrit +/− SD [1]: 19 µmol | anti-inflammatory response (NO production) on simultaneous incubation with LPS [1]: better | cyclic AMP content of PASMC, effect in words (PASMC): Higher increase | cAMP +/− SD (PASMC; peptide 1 nM + IBMX 500 μM): 36.66 pmol/mL | cAMP +/− SD (PASMC; peptide 1 nM, without IBMX): 14.83 pmol/mL | cAMP +/− SD (PASMC; peptide 10 nM + IBMX 500 μM): 37.00 pmol/mL | cAMP +/− SD (PASMC; peptide 10 nM, without IBMX): 19.45 pmol/mL | cAMP +/− SD (PASMC; peptide 100 nM + IBMX 500 μM): 46.42 pmol/mL | cAMP +/− SD (PASMC; peptide 100 nM, without IBMX): 28.43 pmol/mL
